Bridge positions count the residues as written; N and C are the ends. Square brackets hold non-standard residues; d marks the D form. Peptide text beside a SMILES is read from it. ξ: configuration not given here. Gly(N-CH2CH2C6H4-4Cl) = O=C(O)CNCCc1ccc(Cl)cc1; Gly(N-piperonyl) = O=C(O)CNCc1ccc2c(c1)OCO2; Nrpe = C[C@@H](NCC(=O)O)c1ccccc1; NFurfurylGly = O=C(O)CNCc1ccco1; ξE = NC(CCC(=O)O)C(=O)O; Nleu = CC(C)CNCC(=O)O; Nlys = NCCCCNCC(=O)O; Nme = COCCNCC(=O)O
What was measured:
[1] = tested on: Myelin Oligodendrocyte Glycoprotein (MOG) 35-55 specific TCR transgenic T cells; test: Antigen-stimulated T cell proliferation, CFSE dilution by flow cytometry; type: cell-based
[2] = tested on: MBP Ac1-11 specific T cells (Vα2.3/Vβ8.2 TCR transgenic); test: DOPA chemical cross-linking, streptavidin staining, mean fluorescence intensity; parameters: species or system mice; details: biotin-labeled DOPA-peptoid, periodate cross-linking, CD4+/streptavidin+ cells; read-out: Kr, of binding to MBP Ac1-11 specific T cells
wild-type CD4+ T cells = test: Binding of quantum dot-labeled T cells to peptoid resynthesized on beads; parameters: species or system mice
[3] = tested on: CD4+ T cells from MBP Ac1-11 TCR transgenic mice; test: as above; details: red quantum dot-labeled
Description: To determine whether AG12A was binding to the autoreactive TCR, the inventors took advantage of the existence of transgenic mice, in which the vast majority of CD4+ T cells express the MBP Ac1-11 specific TCR (Vα2.3/Vβ8.2 TCR) (Goveman et al., 1993). CD4+ T cells were isolated from these mice and tested for binding to AG12A. This was done in several ways. First, AG12A was resynthesized on beads, as was a control peptoid not selected as a T cell ligand. The beads were then incubated with red quantum dot-labeled T cells.

B cells = test: B cell proliferation; type: cell-based
[4] = target: pemphigus vulgaris autoantibody (Dsg3); test: Solution binding to pemphigus vulgaris autoantibody; details: pemphigus vulgaris autoantibody to the Dsg autoantigen; read-out: binding affinity in solution

Structure (SMILES)	inhibition of antigen-stimulated proliferation of MOG 35-55 specific TCR transgenic T cells [1]	Kd [2] [µM]	binding of T cells to peptoid displayed on beads (wild-type CD4+ T cells)	binding of T cells to peptoid displayed on beads [3]	inhibition of proliferation of B cells (B cells)	Kd [4] [µM]
CC(C)CNCC(=O)N(CCCCN)CC(=O)N(CC(=O)N(CC(=O)N(CCCCN)CC(=O)N(CC(=O)N(CCCCN)CC(=O)N(CCCCN)CC(N)=O)CC(C)C)[C@H](C)c1ccccc1)Cc1ccco1 [AG12A] (H-[Nleu][Nlys][NFurfurylGly][Nrpe][Nlys][Nleu][Nlys][Nlys]-NH2; C-terminus assumed)	did not inhibit	~40	did not	bound to AG12A displayed on beads	nor did AG12A inhibit proliferation of B cells	
COCCN1CC(=O)N(CCCCN)CC(=O)N(Cc2ccc3c(c2)OCO3)CC(=O)N(CCc2ccc(Cl)cc2)CC(=O)NC(C(N)=O)CCC1=O (stereo not drawn) [compound 1a] ([Nme][Nlys][Gly(N-piperonyl)][Gly(N-CH2CH2C6H4-4Cl)][ξE]-NH2; lactam N-5)						~10

Source: US9458199B2, “Antigen surrogates in autoimmune disease” (OPKO Pharmaceuticals, LLC, priority 2011, dated 2016)
